Results on 16 compounds are retold here after ChEMBL document CHEMBL3045108, “Advanced QSRR models of toxicological screening of basic drugs in whole blood by UPLC-TOFMS” (Med Chem Res, 2012).

This data set relates to Blood. The data set can be described thus: Drug level in Homo sapiens (human) whole blood assessed as retention time by UPLC-TOF-MS analysis.
Consider `O=C1NCCN1CCN1CCC(c2cn(-c3ccc(F)cc3)c3ccc(Cl)cc23)CC1` [SERTINDOLE], for which the Retention_time is on record as 6.3 min. Regarding `CN[C@H]1CC[C@@H](c2ccc(Cl)c(Cl)c2)c2ccccc21` [SERTRALINE], the Retention_time was 6.04 min. In the case of `CC(C)NCC(O)c1ccc(NS(C)(=O)=O)cc1` (stereo unspecified) [SOTALOL], the Retention_time stood at 2.02 min.

For the compound `CCN1CCCC1CNC(=O)c1cc(S(N)(=O)=O)ccc1OC` (stereo unspecified) [SULPIRIDE], the Retention_time is 2.21 min. `CC(N)Cc1ccc2c(c1)OCO2` (stereo unspecified) [TENAMFETAMINE]: the Retention_time was 2.7 min. To `CC(C)(C)NCC(O)c1cc(O)cc(O)c1` (stereo unspecified) [TERBUTALINE] belongs 1.93 min; to `CN1[C@H]2CC[C@@H]1[C@@H](C(=O)O)[C@@H](OC(=O)c1ccccc1)C2` [THERACYS], 3.48 min; to `CCCCNC(=O)NS(=O)(=O)c1ccc(C)cc1` [TOLBUTAMIDE], 6.16 min.

For `COc1cccc(C2(O)CCCCC2CN(C)C)c1` (stereo unspecified) [TRAMADOL], the Retention_time is on record as 4.09 min.

For the compound `Cc1nnc2n1-c1ccc(Cl)cc1C(c1ccccc1Cl)=NC2` [TRIAZOLAM], the Retention_time came to 6.15 min. `CC(CN(C)C)CN1c2ccccc2CCc2ccccc21` (stereo unspecified) [TRIMIPRAMINE]: the Retention_time is given as 6.05 min. For `COc1ccc(C(CN(C)C)C2(O)CCCCC2)cc1` (stereo unspecified) [VENLAFAXINE], the Retention_time worked out at 5.06 min. For `CCN(C(C)=O)c1cccc(-c2ccnc3c(C#N)cnn23)c1` [ZALEPLON], the Retention_time is 5.68 min.

Turning to `CN(C)CCc1c[nH]c2ccc(C[C@H]3COC(=O)N3)cc12` [ZOLMITRIPTAN], the Retention_time stood at 2.7 min.

With `Cc1ccc(-c2nc3ccc(C)cn3c2CC(=O)N(C)C)cc1` [ZOLPIDEM], the Retention_time stood at 4.78 min. Turning to `CN1CCN(C(=O)OC2c3nccnc3C(=O)N2c2ccc(Cl)cn2)CC1` (stereo unspecified) [ZOPICLONE], the Retention_time was found to be 3.88 min.
